This experiment has as its system BDF1 mice, Adenocarcinoma 755 s.c., tumor weight T/C. In words: NCI In Vivo Anticancer Drug Screen. Data for tumor model Adenocarcinoma 755 (subcutaneous) in B6D2F1 (BDF1) mice. The following applies: endpoint: mean tumor weight, higher = larger tumour. The essentials: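 Readout: T/C, i.e. treated-group measurement over vehicle-control measurement. Endpoint is survival or tumor size in tumor-bearing mice given compound.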

[1] abbreviates: dose: 31.25 mg/kg/injection, schedule: Q01DX011 (ip), vehicle: methylcellulose (MC).
Setting [2] is: dose: 62.5 mg/kg/injection, schedule: Q01DX011 (ip), vehicle: methylcellulose (MC).
Setting [3] is: dose: 125.0 mg/kg/injection, schedule: Q01DX011 (ip), vehicle: methylcellulose (MC).
The mark [4] stands for this setting: dose: 30.0 mg/kg/injection, schedule: Q01DX011 (ip), vehicle: carboxymethylcellulose (CMC).
[5] abbreviates: dose: 120.0 mg/kg/injection, schedule: Q01DX011 (ip), vehicle: carboxymethylcellulose (CMC).
Setting [6] is: dose: 1.0 mg/kg/injection, schedule: Q01DX011 (ip), vehicle: carboxymethylcellulose (CMC).

Several values for one entry are separate records, joined by “and”; a condition that tells them apart may be missing. Identical values can stand only once.

By T/C is commonly meant the ratio of treated to control. As to `CCNc1nncs1`, the T/C was 65 % of control (dose: 8.63 mg/kg/injection, schedule: Q01DX011 (ip), vehicle: carboxymethylcellulose (CMC)); 73 % of control (dose: 14.22 mg/kg/injection, schedule: Q01DX011 (ip), vehicle: carboxymethylcellulose (CMC)); 77 % of control (dose: 17.25 mg/kg/injection, schedule: Q01DX011 (ip), vehicle: carboxymethylcellulose (CMC)); 84 % of control (dose: 28.45 mg/kg/injection, schedule: Q01DX011 (ip), vehicle: carboxymethylcellulose (CMC)); 62 % of control under setting [1]; 101 % of control (dose: 34.5 mg/kg/injection, schedule: Q01DX011 (ip), vehicle: carboxymethylcellulose (CMC)). Moreover, the T/C is 89 % of control and 80 % of control and 84 % of control (dose: 56.9 mg/kg/injection, schedule: Q01DX011 (ip), vehicle: carboxymethylcellulose (CMC)); 49 % of control under setting [2]; 103 % of control (dose: 69.0 mg/kg/injection, schedule: Q01DX011 (ip), vehicle: carboxymethylcellulose (CMC)); 58 % of control and 75 % of control (dose: 75.8 mg/kg/injection, schedule: Q01DX011 (ip), vehicle: carboxymethylcellulose (CMC)); 6 % of control under setting [3].
In the case of `CCCn1cnc2c(SCc3ccccc3)nc(N)nc21`, the T/C (dose: 7.81 mg/kg/injection, schedule: Q01DX011 (ip), vehicle: methylcellulose (MC)) is 43 % of control; the T/C (dose: 15.62 mg/kg/injection, schedule: Q01DX011 (ip), vehicle: methylcellulose (MC)) was 9 % of control; the T/C under setting [1] is 37 % of control; the T/C under setting [2] was 1 % of control.
In the case of `C[C@]1(O)CC[C@H]2[C@@H]3CC[C@@H]4CC(=O)CC[C@]4(C)[C@@]3(F)C(=O)C[C@@]21C`, the T/C by setting is: (dose: 200.0 mg/kg/injection, schedule: Q01DX011 (sc), vehicle: steriod suspending solution) 72 % of control; (dose: 400.0 mg/kg/injection, schedule: Q01DX011 (sc), vehicle: steriod suspending solution) 117 % of control.
With `CC(=O)OCC1OC(n2ncc(=O)[nH]c2=O)C(OC(C)=O)C1OC(C)=O` (stereo unspecified), the T/C is, setting by setting: (dose: 187.5 mg/kg/injection, schedule: Q01DX011 (ip), vehicle: other) 115 % of control; (dose: 375.0 mg/kg/injection, schedule: Q01DX011 (ip), vehicle: other) 121 % of control; (dose: 1500.0 mg/kg/injection, schedule: Q01DX011 (ip), vehicle: other) 43 % of control.
In the case of `Nc1cnc(=O)[nH]c1N`, the T/C was 92 % of control under setting [4]; 92 % of control (dose: 60.0 mg/kg/injection, schedule: Q01DX011 (ip), vehicle: carboxymethylcellulose (CMC)); 122 % of control under setting [5]; 78 % of control (dose: 400.0 mg/kg/injection, schedule: Q01DX011 (ip), vehicle: carboxymethylcellulose (CMC)); 96 % of control (dose: 600.0 mg/kg/injection, schedule: Q01DX011 (ip), vehicle: carboxymethylcellulose (CMC)).
For `Cc1cnc(Cl)nc1Sc1nc(N)nc2nc[nH]c12`, the T/C was 56 % of control (dose: 0.5 mg/kg/injection, schedule: Q01DX011 (ip), vehicle: methylcellulose (MC)); 31 % of control (dose: 0.75 mg/kg/injection, schedule: Q01DX011 (ip), vehicle: carboxymethylcellulose (CMC)); 31 % of control and 38 % of control under setting [6]; 52 % of control (dose: 1.0 mg/kg/injection, schedule: Q01DX011 (ip), vehicle: methylcellulose (MC)); 11 % of control (dose: 1.5 mg/kg/injection, schedule: Q01DX011 (ip), vehicle: carboxymethylcellulose (CMC)); 8 % of control and 11 % of control (dose: 3.0 mg/kg/injection, schedule: Q01DX011 (ip), vehicle: carboxymethylcellulose (CMC)). Moreover, the T/C is 35 % of control (dose: 3.0 mg/kg/injection, schedule: Q01DX011 (ip), vehicle: methylcellulose (MC)) and 8 % of control (dose: 6.0 mg/kg/injection, schedule: Q01DX011 (ip), vehicle: carboxymethylcellulose (CMC)).
On to `COc1cc(-c2ccc(N=Nc3ccc4c(S(=O)(=O)O)cc(S(=O)(=O)O)c(N)c4c3O)c(OC)c2)ccc1N=Nc1ccc2c(S(=O)(=O)O)cc(S(=O)(=O)O)c(N)c2c1O`, for which the T/C runs as follows: under setting [6], 74 % of control; (dose: 2.0 mg/kg/injection, schedule: Q01DX011 (ip), vehicle: carboxymethylcellulose (CMC)) 38 % of control; (dose: 4.0 mg/kg/injection, schedule: Q01DX011 (ip), vehicle: carboxymethylcellulose (CMC)) 44 % of control; (dose: 8.0 mg/kg/injection, schedule: Q01DX011 (ip), vehicle: carboxymethylcellulose (CMC)) 31 % of control and 43 % of control.
Turning to `Cc1cnc(SCc2ccc(Cl)cc2Cl)nc1SCc1ccc(Cl)cc1Cl`, the T/C reads like this: (dose: 31.0 mg/kg/injection, schedule: Q01DX011 (ip), vehicle: methylcellulose (MC)) 114 % of control; under setting [3], 100 % of control; (dose: 250.0 mg/kg/injection, schedule: Q01DX011 (ip), vehicle: methylcellulose (MC)) 117 % of control.
As to `OCC1OC(n2cnc3c(Br)ncnc32)C(O)C1O` (stereo unspecified), the T/C is, setting by setting: under setting [4], 74 % of control; under setting [5], 63 % of control; (dose: 240.0 mg/kg/injection, schedule: Q01DX011 (ip), vehicle: carboxymethylcellulose (CMC)) 49 % of control.
With `O=C(O)CNc1ncnc2[nH]ncc12`, the T/C by setting is: (dose: 12.5 mg/kg/injection, schedule: Q01DX011 (ip), vehicle: methylcellulose (MC)) 65 % of control; (dose: 25.0 mg/kg/injection, schedule: Q01DX011 (ip), vehicle: methylcellulose (MC)) 82 % of control; (dose: 50.0 mg/kg/injection, schedule: Q01DX011 (ip), vehicle: methylcellulose (MC)) 36 % of control; (dose: 100.0 mg/kg/injection, schedule: Q01DX011 (ip), vehicle: methylcellulose (MC)) 2 % of control and 7 % of control.
In the case of `NC1(C(=O)O)CCCC1`, the T/C by setting is: (dose: 4.45 mg/kg/injection, schedule: Q01DX011 (ip), vehicle: carboxymethylcellulose (CMC)) 71 % of control; (dose: 7.5 mg/kg/injection, schedule: Q01DX011 (ip), vehicle: methylcellulose (MC)) 61 % of control; (dose: 8.9 mg/kg/injection, schedule: Q01DX011 (ip), vehicle: carboxymethylcellulose (CMC)) 70 % of control; (dose: 13.12 mg/kg/injection, schedule: Q01DX011 (ip), vehicle: carboxymethylcellulose (CMC)) 42 % of control; (dose: 14.24 mg/kg/injection, schedule: Q01DX011 (ip), vehicle: carboxymethylcellulose (CMC)) 83 % of control; (dose: 15.0 mg/kg/injection, schedule: Q01DX011 (ip), vehicle: methylcellulose (MC)) 96 % of control. The T/C was 43 % of control (dose: 16.0 mg/kg/injection, schedule: Q01DX011 (ip), vehicle: saline); 40 % of control (dose: 18.0 mg/kg/injection, schedule: Q01DX011 (ip), vehicle: methylcellulose (MC)); 55 % of control (dose: 23.73 mg/kg/injection, schedule: Q01DX011 (ip), vehicle: carboxymethylcellulose (CMC)); 12 % of control (dose: 30.0 mg/kg/injection, schedule: Q01DX011 (ip), vehicle: methylcellulose (MC)); 13 % of control (dose: 31.3 mg/kg/injection, schedule: Q01DX011 (ip), vehicle: saline); 33 % of control and 38 % of control (dose: 35.6 mg/kg/injection, schedule: Q01DX011 (ip), vehicle: carboxymethylcellulose (CMC)). The T/C (dose: 37.5 mg/kg/injection, schedule: Q01DX011 (ip), vehicle: methylcellulose (MC)) is 16 % of control; the T/C (dose: 42.0 mg/kg/injection, schedule: Q01DX011 (ip), vehicle: carboxymethylcellulose (CMC)) was 31 % of control; the T/C (dose: 42.0 mg/kg/injection, schedule: Q01DX011 (oral), vehicle: saline) was 10 % of control; the T/C (dose: 52.5 mg/kg/injection, schedule: Q01DX011 (ip), vehicle: carboxymethylcellulose (CMC)) was 8 % of control and 14 % of control; the T/C (dose: 60.0 mg/kg/injection, schedule: Q01DX011 (ip), vehicle: methylcellulose (MC)) is 12 % of control; the T/C (dose: 62.5 mg/kg/injection, schedule: Q01DX011 (ip), vehicle: saline) is 6 % of control. The T/C is 4 % of control (dose: 63.0 mg/kg/injection, schedule: Q01DX011 (oral), vehicle: saline); 4 % of control (dose: 70.0 mg/kg/injection, schedule: Q01DX011 (ip), vehicle: carboxymethylcellulose (CMC)); 1 % of control (dose: 95.0 mg/kg/injection, schedule: Q01DX011 (oral), vehicle: saline); 3 % of control and 6 % of control (dose: 105.0 mg/kg/injection, schedule: Q01DX011 (ip), vehicle: carboxymethylcellulose (CMC)).
As to `CCOC(=O)CCCc1ccc(N=NN(C)CC(C)C)cc1`, the T/C (dose: 125.0 mg/kg/injection, schedule: Q01DX011 (ip), vehicle: carboxymethylcellulose (CMC)) is 47 % of control and the T/C (dose: 250.0 mg/kg/injection, schedule: Q01DX011 (ip), vehicle: carboxymethylcellulose (CMC)) was 28 % of control.

The values are drawn from PubChem BioAssay AID180 (DTP/NCI, 2004).
